# In ChEMBL document CHEMBL5728694, “Inhibitors of hepatitis C virus replication” (2021):
# Assay: Measuring Compound Inhibitory Potency: Measurement of inhibition by compounds was performed using the HCV replicon system. Several different replicons encoding different HCV genotypes or mutations were used. In addition, potency measurements were made using different formats of the replicon assay, including different ways of measurements and different plating formats. See Jan M. Vrolijk et al., A replicons-based bioassay for the measurement of interferons in patients with chronic hepatitis C, 110 J. VIROLOGICAL METHODS 201 (2003); Steven S. Carroll et al., Inhibition of Hepatitis C Virus RNA Replication by 2′-Modified Nucleoside Analogs, 278(14) J. BIOLOGICAL CHEMISTRY 11979 (2003). However, the underlying principles are common to all of these determinations, and are outlined below.Stable neomycin phosphotransferase encoding replicon-harboring cell lines were used, so all cell lines were maintained under G418 selection prior to the assay. In some cases, the cell lines encoded a luciferase:Neor fusion and could be assayed either directly by determination of RNA copy number, or indirectly through measurement of the luciferase activity.To initiate an assay, replicon cells were plated in the presence of a dilution series of test compound in the absence of G418. Typically, the assays were performed in a 96-well plate format for manual operation, or a 384-well plate in an automated assay. […]
smiles,measurement,value
COC(=O)N[C@H](C(=O)N1CCC[C@H]1c1ncc(-c2ccc3oc(-c4ccc(-c5cnc([C@@H]6CCCN6C(=O)[C@@H](NC(=O)OC)C(C)C)[nH]5)c(F)c4)cc3c2)[nH]1)C(C)C,EC50,4 pM
